# Source: patent publication US8394828B2 (Janssen Pharmaceutica, NV, priority 2003, dated 2013)
# Like-named read-outs stand apart in the source and are kept apart here.
# Legend:
# [1] = target: T1, human VR1 (Homo sapiens, UniProt Q8NER1); assay: Human VR1 [3H] RTX binding assay; conditions: 3H-RTX binding; for inhibition at 1 µM: compound at 1 μM; for Ki: hVR1, read-out: 3H-RTX binding assay Ki hVR1
# T1 construct: expressed in transfected cells; host or cells: HEK293
# Experimental: Compounds of the present invention were tested for their ability to inhibit the binding of [^3H] RTX to hVR1 receptors in a [^3H]
# HEK293 cells were transfected with human VR1 vanilloid receptors and washed with Hank's Balanced Salt Solution, dissociated with cell dissociation buffer (Sigma), and then centrifuged at 1000×g for 5 min. […] The pelleted membranes were kept in an −80° C. freezer.
# Approximately 120 μg protein/ml from membranes were incubated with indicated concentrations of [^3H] RTX in 0.5 ml of the HEPES buffer (pH 7.4) containing 0.25 mg/mL fatty acid-free bovine serum albumin at 37° C. for 60 min. […] The tip of the microcentrifuge tube containing the pellet was cut off. Bound radioactivity was quantified by scintillation counting. Non-specific binding was tested in the presence of 200 nM unlabeled RTX.
# [2] = target: T1, human VR1; assay: Human VR1 functional assay (intracellular Ca++, FLIPR, capsaicin challenge); format: cell-based
# Experimental: The functional activity of the test compounds was determined by measuring changes in intracellular calcium concentration using a Ca^++-sensitive fluorescent dye and FLIPR™ technology.
# EC50 or IC50 values were determined from dose-response studies.
# [3] = FLIPR functional assay IC50 hVR1 60 min, 60 min
# [4] = hVR1, capsaicin challenge, read-out: FLIPR functional assay IC50 hVR1
# T1 sequence (Q8NER1 whole entry): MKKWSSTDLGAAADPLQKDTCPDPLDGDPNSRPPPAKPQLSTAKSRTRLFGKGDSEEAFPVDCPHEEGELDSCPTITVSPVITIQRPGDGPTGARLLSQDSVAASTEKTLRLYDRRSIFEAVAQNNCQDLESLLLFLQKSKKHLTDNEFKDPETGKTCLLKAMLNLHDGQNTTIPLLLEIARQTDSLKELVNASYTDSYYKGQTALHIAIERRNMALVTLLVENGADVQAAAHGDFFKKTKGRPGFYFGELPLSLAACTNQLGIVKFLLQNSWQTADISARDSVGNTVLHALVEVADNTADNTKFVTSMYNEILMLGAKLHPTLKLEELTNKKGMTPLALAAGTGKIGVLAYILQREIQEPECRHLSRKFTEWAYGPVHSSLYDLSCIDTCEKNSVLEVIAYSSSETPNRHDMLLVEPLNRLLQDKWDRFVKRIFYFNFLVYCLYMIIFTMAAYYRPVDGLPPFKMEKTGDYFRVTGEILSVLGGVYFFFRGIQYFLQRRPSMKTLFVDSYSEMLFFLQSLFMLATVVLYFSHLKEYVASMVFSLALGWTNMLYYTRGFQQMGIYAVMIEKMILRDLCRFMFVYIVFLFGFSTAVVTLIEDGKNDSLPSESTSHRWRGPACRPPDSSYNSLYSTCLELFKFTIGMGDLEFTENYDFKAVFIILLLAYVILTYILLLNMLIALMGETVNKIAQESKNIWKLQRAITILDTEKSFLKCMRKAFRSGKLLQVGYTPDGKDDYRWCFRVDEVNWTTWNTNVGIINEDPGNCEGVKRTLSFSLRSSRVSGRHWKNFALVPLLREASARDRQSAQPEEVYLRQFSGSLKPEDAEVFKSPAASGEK
Structure (SMILES),inhibition at 1 µM [1],Ki [1],"IC50 [2, 3]","IC50 [2, 4]"
CCCN(C)c1ccc(CCC(=O)Nc2cnc3ccccc3c2)cc1 [3-{4-(Methyl-propyl-amino)-phenyl}-N-quinolin-3-yl-propionamide],–,196 nM,–,500 nM
"CC1CN(c2ccc(C(=O)Nc3cnc4ccccc4c3)cc2)CC(C)O1 (stereo not drawn) [4-(2,6-Dimethyl-morpholin-4-yl)-N-quinolin-3-yl-benzamide]",18%,–,–,10000 nM
"CC1CC(C)CN(c2ccc(C(=O)Nc3cnc4ccccc4c3)cc2)C1 (stereo not drawn) [4-(3,5-Dimethyl-piperidin-1-yl)-N-quinolin-3-yl-benzamide]",91%,86.1 nM,–,1800 nM
O=C(Nc1cnc2ccccc2c1)c1ccc(N2CC3CCCC(C3)C2)cc1 [4-(3-Aza-bicyclo{3.3.1}non-3-yl)-N-quinolin-3-yl-benzamide],99%,5.15 nM,127 nM,170 nM
O=C(Nc1cnc2ccccc2c1)c1ccc(N2CCN(C(=O)Cc3ccccc3)CC2)cc1 [4-(4-Phenylacetyl-piperazin-1-yl)-N-quinolin-3-yl-benzamide],–,100000 nM,–,10000 nM
CCCC1CCN(c2ccc(C(=O)Nc3cnc4ccccc4c3)cc2)CC1 [4-(4-Propyl-piperidin-1-yl)-N-quinolin-3-yl-benzamide],92%,103 nM,170 nM,16000 nM
CN(Cc1ccccc1)c1ccc(C(=O)Nc2cnc3ccccc3c2)cc1 [4-(Benzyl-methyl-amino)-N-quinolin-3-yl-benzamide],98%,75.3 nM,370 nM,2300 nM
CCCN(c1ccc(C(=O)Nc2cnc3ccccc3c2)cc1)C1CCCCC1 [4-(Cyclohexyl-propyl-amino)-N-quinolin-3-yl-benzamide],–,84.6 nM,–,10000 nM
Cc1cc(C(=O)Nc2cnc3ccccc3c2)ccc1N(C)CC1CCCCC1 [4-(Cyclohexylmethyl-methyl-amino)-3-methyl-N-quinolin-3-yl-benzamide],–,68.3 nM,–,10000 nM

# Now from value to compound:
inhibition at 1 µM [1],Ki [1],"IC50 [2, 3]","IC50 [2, 4]",Structure (SMILES)
91%,131 nM,400 nM,–,CN(c1ccc(C=CC(=O)Nc2cnc3ccccc3c2)cc1)C1CCCCC1 [3-{4-(Cyclohexyl-methyl-amino)-phenyl}-N-quinolin-3-yl-acrylamide]
51%,1170 nM,–,3900 nM,CN(c1ccc(CCC(=O)Nc2cnc3ccccc3c2)cc1)C1CCCCC1 [3-{4-(Cyclohexyl-methyl-amino)-phenyl}-N-quinolin-3-yl-propionamide]
1%,–,–,10000 nM,CC(=O)N(c1ccc(C(=O)Nc2cnc3ccccc3c2)cc1)C1CCCCC1 [4-(Acetyl-cyclohexyl-amino)-N-quinolin-3-yl-benzamide]
100%,14 nM,–,400 nM,CN(c1ccc(C(=O)Nc2cnc3ccccc3c2)cc1)C1CCCCCC1 [4-(Cycloheptyl-methyl-amino)-N-quinolin-3-yl-benzamide]
–,12.6 nM,–,300 nM,CCN(c1ccc(C(=O)Nc2cnc3ccccc3c2)cc1)C1CCCCC1 [4-(Cyclohexyl-ethyl-amino)-N-quinolin-3-yl-benzamide]
–,22 nM,23 nM,560 nM,Cc1cc(C(=O)Nc2cnc3ccccc3c2)ccc1N(C)C1CCCCC1 [4-(Cyclohexyl-methyl-amino)-3-methyl-N-quinolin-3-yl-benzamide]
12%,–,–,2000 nM,CN(C(=O)c1ccc(N(C)C2CCCCC2)cc1)c1cnc2ccccc2c1 [4-(Cyclohexyl-methyl-amino)-N-methyl-N-quinolin-3-yl-benzamide]
104%,15.7 nM,–,1700 nM,CN(CC1CCCCC1)c1ccc(C(=O)Nc2cnc3ccccc3c2)cc1 [4-(Cyclohexylmethyl-methyl-amino)-N-quinolin-3-yl-benzamide]
–,27.9 nM,–,185 nM,CN(c1ccc(C(=O)Nc2cnc3ccccc3c2)cc1)C1CCCC1 [4-(Cyclopentyl-methyl-amino)-N-quinolin-3-yl-benzamide]
